Assay results: patent US8466149B2, “6-substituted sulfonyl azabicyclo[3.2.1]octanes useful to inhibit 11β-hydroxysteroid dehydrogenase type-I” (Merck Sharp & Dohme Corp., priority 2007, dated 2013)
Blank lines part the entries; values can stand above or below the compound they belong to.

Experiments:
[1] = target: Mouse 11β-HSD-1 (Mus musculus, UniProt P50172); experiment: In vitro 11β-HSD1 activity assay, mouse enzyme; assay type: biochemical
Method: (§1) Measurement of 11β-HSD1 activity
(§2) 11β-HSD1 enzymatic activity was measured in a 50 μl reaction containing 20 mM NaPO4 pH 7.5, 0.1 mM MgCl2, 3 mM NADPH (prepared fresh daily), 125 nM ^3H-cortisone (American Radiochemicals) and 0.5 μg membrane. The reaction was incubated at room temperature for 1 hr before it was stopped by addition of […] containing 20 mM NaPO4 pH 7.5, 30 μM 18β-glycyrrhetinic acid, 1 μg/ml monoclonal anti-cortisol antibody (Biosource) and 2 mg/ml anti-mouse antibody coated scintillation proximity assay (SPA) beads (Amersham Bioscience). The mixture was incubated at room temperature for 2 hrs with vigorous shaking and analyzed on TopCount scintillation counter.

[2] = target: T1, Human 11β-HSD1 (Homo sapiens, UniProt P28845); experiment: In vitro 11β-HSD1 activity assay (SPA, 3H-cortisone, membranes); assay type: biochemical; conditions: human 11β-HSD1 membranes, 125 nM 3H-cortisone, read-out: Human 11β-HSD-1 IC50
T1 construct: myc (N); made in house; host or cells: Sf9 cells (baculovirus, Bac-to-Bac)
T1 sequence (P28845 whole entry): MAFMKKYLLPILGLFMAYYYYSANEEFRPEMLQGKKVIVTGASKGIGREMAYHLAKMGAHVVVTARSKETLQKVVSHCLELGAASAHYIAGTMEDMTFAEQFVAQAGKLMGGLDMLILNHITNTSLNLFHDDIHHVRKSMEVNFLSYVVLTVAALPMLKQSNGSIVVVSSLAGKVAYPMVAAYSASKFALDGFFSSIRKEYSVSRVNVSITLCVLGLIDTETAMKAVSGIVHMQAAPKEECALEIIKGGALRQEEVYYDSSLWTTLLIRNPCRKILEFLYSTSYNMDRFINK
Method: In vitro 11β-HSD1 activity assay Preparation of 11β-HSD1 membranes
Human 11β-HSD1 with N-terminal myc tag was expressed in Sf9 cells using baculovirus Bac-to-Bac expression system (Invitrogen) according to manufacturer's instructions. Cells were harvested three days after infection and washed in PBS before frozen. To make membranes, the cells were resuspended in buffer A (20 mM Tris-HCl, pH7.4, 100 mM NaCl, 2 mM EDTA, 2 mM EGTA and Complete™ protease inhibitor tablets (Roche Molecular Biochemicals)), and lysed in a nitrogen bomb at 900 psi. The cell lysate was centrifuged at 600 g for 10 min to remove nuclei and large cell debris. The supernatant was centrifuged at 100,000 g for 1 hr. The membrane pellet was resuspended in buffer A, flash-frozen in liquid nitrogen and stored at −70° C. before use.
as §1, §2

[3] = target: T2, 11β-HSD-1 (Mus musculus, UniProt P50172); experiment: In vivo screen for inhibition of 11β-HSD-1 (mouse cortisone challenge, plasma cortisol); conditions: 30 mpk oral, lean male C57BI/6N mice, cortisone 1 mg/kg sc, plasma cortisol by ELISA
T2 construct: from tissue; host or cells: whole animal, C57Bl/6N mice
T2 sequence (P50172 whole entry): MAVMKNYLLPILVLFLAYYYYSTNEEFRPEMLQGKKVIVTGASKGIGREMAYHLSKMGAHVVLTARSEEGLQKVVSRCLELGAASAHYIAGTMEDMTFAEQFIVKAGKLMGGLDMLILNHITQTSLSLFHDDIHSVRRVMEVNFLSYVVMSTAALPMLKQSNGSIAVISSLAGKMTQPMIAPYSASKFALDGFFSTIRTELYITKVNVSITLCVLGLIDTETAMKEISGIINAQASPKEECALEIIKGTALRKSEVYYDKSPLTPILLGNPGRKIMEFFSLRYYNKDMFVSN
Method: In Vivo Screen for Inhibition of 11β-HSD-1
Lean male C57BI/6N mice were orally dosed with a solution of dexamethasone (0.5 mg/kg) and test agent or vehicle (20% HPβCD (10 ml/kg)). One hour later, cortisone was administered (1 mg/kg sc in sesame oil). One hour after cortisone administration, animals were euthanized for blood collection, and plasma cortisol levels were determined with a commercially available ELISA.

Chain of Mouse 11β-HSD-1 (P50172 whole entry): as above

Compound: Cc1ccccc1S(=O)(=O)N1CC2(C)CC1CC(C)(C)C2 (stereo not drawn) [Compound No. 5]
IC50 [1]: 18200 nM | IC50 [2]: 3010 nM

Compound: CCC(C)(C)c1ccc(S(=O)(=O)N2CC3(C)CC2CC(C)(C)C3)cc1 (stereo not drawn) [Compound No. 23]
IC50 [1]: 19 nM | IC50 [2]: 28 nM | Mouse cort. challenge % I @ 30 mpk [3]: 26%

Compound: CC1(C)CC2CC(C)(CN2S(=O)(=O)c2ccc(Cl)c3nonc23)C1 (stereo not drawn) [compound 3]
IC50 [1]: 1870 nM | IC50 [2]: 407 nM

Compound: CC1(C)CC2CC(C)(CN2S(=O)(=O)Cc2ccccc2)C1 (stereo not drawn) [compound 4]
IC50 [1]: 7930 nM | IC50 [2]: 3390 nM

Compound: COc1cccc(S(=O)(=O)N2CC3(C)CC2CC(C)(C)C3)c1 (stereo not drawn) [compound 10]
IC50 [1]: 3170 nM | IC50 [2]: 2510 nM

Compound: CC1(C)CC2CC(C)(CN2S(=O)(=O)c2ccccc2Cl)C1 (stereo not drawn) [compound 12]
IC50 [1]: 28200 nM | IC50 [2]: 1410 nM

Compound: CC1(C)CC2CC(C)(CN2S(=O)(=O)c2ccc(-c3ccccc3)cc2)C1 (stereo not drawn) [compound 25]
IC50 [1]: 364 nM | IC50 [2]: 169 nM

Compound: CC1(C)CC2CC(C)(CN2S(=O)(=O)c2ccccc2C#N)C1 (stereo not drawn) [compound 29]
IC50 [1]: 13300 nM | IC50 [2]: 5710 nM

Compound: COC(C)c1ccc(S(=O)(=O)N2CC3(C)CC2CC(C)(C)C3)cc1 (stereo not drawn) [compound 45]
IC50 [1]: 27 nM | IC50 [2]: 19 nM | Mouse cort. challenge % I @ 30 mpk [3]: 16%

Compound: CCOC(C)c1ccc(S(=O)(=O)N2CC3(C)CC2CC(C)(C)C3)cc1 (stereo not drawn) [compound 46]
IC50 [1]: 87 nM | IC50 [2]: 10 nM

Compound: CC1(C)CC2CC(C)(CN2S(=O)(=O)c2ccc(C(F)(F)F)cc2)C1 (stereo not drawn) [compound 48]
IC50 [1]: 686 nM | IC50 [2]: 268 nM

Compound: COC(C)(C)c1ccc(S(=O)(=O)N2CC3CC(C)(C2)CC3(C)C)cc1 (stereo not drawn) [compound 49]
IC50 [1]: 11 nM | IC50 [2]: 23 nM | Mouse cort. challenge % I @ 30 mpk [3]: 19%

Compound: CC1(C)CC2CC(C)(CN2S(=O)(=O)c2ccc(C3CCCCC3)cc2)C1 (stereo not drawn) [compound 61]
IC50 [1]: 165 nM | IC50 [2]: 415 nM

Compound: CC1(C)CC2CC(C)(CN2S(=O)(=O)c2ccc(-c3cnco3)cc2)C1 (stereo not drawn) [compound 62]
IC50 [1]: 309 nM | IC50 [2]: 96 nM

Compound: CC1(C)CC2CC(C)(CN2S(=O)(=O)c2ccc(-c3csnn3)cc2)C1 (stereo not drawn) [compound 63]
IC50 [1]: 305 nM | IC50 [2]: 111 nM

Compound: CC(C)Oc1ccc(S(=O)(=O)N2CC3(C)CC2CC(C)(C)C3)cc1 (stereo not drawn) [compound 64]
IC50 [1]: 217 nM | IC50 [2]: 340 nM

Compound: CCCCc1ccc(S(=O)(=O)N2CC3(C)CC2CC(C)(C)C3)cc1 (stereo not drawn) [compound 65]
IC50 [1]: 950 nM | IC50 [2]: 372 nM

Compound: CCC(C)c1ccc(S(=O)(=O)N2CC3(C)CC2CC(C)(C)C3)cc1 (stereo not drawn) [compound 68]
IC50 [1]: 112 nM | IC50 [2]: 55 nM

Compound: CCC(C)(O)c1ccc(S(=O)(=O)N2CC3(C)CC2CC(C)(C)C3)cc1 (stereo not drawn) [compound 69]
IC50 [1]: 68 nM | IC50 [2]: 30 nM

More lines, now with the values ahead:

IC50 [1]: 71 nM | IC50 [2]: 31 nM | Mouse cort. challenge % I @ 30 mpk [3]: 30%
Compound: CC1(C)CC2CC(C)(CN2S(=O)(=O)c2ccc(C(C)(C)C)cc2)C1 (stereo not drawn) [Compound No. 1]

IC50 [1]: 670 nM | IC50 [2]: 247 nM
Compound: Cc1ccc(S(=O)(=O)N2CC3(C)CC2CC(C)(C)C3)cc1 (stereo not drawn) [Compound No. 6]

IC50 [1]: 732 nM | IC50 [2]: 139 nM
Compound: CC(=O)c1ccc(S(=O)(=O)N2CC3(C)CC2CC(C)(C)C3)cc1 (stereo not drawn) [Compound No. 16]

IC50 [1]: 420 nM | IC50 [2]: 190 nM
Compound: CCc1ccc(S(=O)(=O)N2CC3(C)CC2CC(C)(C)C3)cc1 (stereo not drawn) [compound 9]

IC50 [1]: 2480 nM | IC50 [2]: 407 nM
Compound: CC1(C)CC2CC(C)(CN2S(=O)(=O)c2ccc(Cl)cc2)C1 (stereo not drawn) [compound 13]

IC50 [1]: 127 nM | IC50 [2]: 67 nM
Compound: CC(C)c1ccc(S(=O)(=O)N2CC3(C)CC2CC(C)(C)C3)cc1 (stereo not drawn) [compound 17]

IC50 [1]: 3170 nM | IC50 [2]: 2510 nM
Compound: CC1(C)CC2CC(C)(CN2S(=O)(=O)c2ccc(I)cc2)C1 (stereo not drawn) [compound 32]

IC50 [1]: 67 nM | IC50 [2]: 16 nM | Mouse cort. challenge % I @ 30 mpk [3]: 63%
Compound: CC(O)c1ccc(S(=O)(=O)N2CC3(C)CC2CC(C)(C)C3)cc1 (stereo not drawn) [compound 44]

IC50 [1]: 43 nM | IC50 [2]: 7 nM | Mouse cort. challenge % I @ 30 mpk [3]: 43%
Compound: CC1(C)CC2CC(C)(CN2S(=O)(=O)c2ccc(C(C)(C)O)cc2)C1 (stereo not drawn) [compound 50]

IC50 [1]: 5940 nM | IC50 [2]: 126 nM
Compound: CC1(C)CC2CC(C)(CN2S(=O)(=O)c2ccc([N+](=O)[O-])cc2)C1 (stereo not drawn) [compound 75]

IC50 [1]: 1820 nM | IC50 [2]: 126 nM
Compound: CC1(C)CC2CC(C)(CN2S(=O)(=O)c2ccc(C#N)cc2)C1 (stereo not drawn) [compound 76]
